Source: ChEMBL document CHEMBL6083219, “Rationally designed febuxostat-based hydroxamic acid and its pH-Responsive nanoformulation elicits anti-tumor activity” (Eur J Med Chem, 2024)
Activity calls are given as the source filed them. No cut-off for these calls is given here.

Experiments:
[1] = test system: HL-60; assay: Downregulation of HDAC1 expression level in human HL-60 cells at 0.5 to 2 uM by Western blotting analysis; format: functional, cell-based; details: dose 0.5-2 µM
[2] = test system: HL-60; assay: Downregulation of HDAC2 expression level in human HL-60 cells at 0.5 to 2 uM by Western blotting analysis; format: functional, cell-based; details: dose 0.5-2 µM
[3] = test system: HL-60; assay: Downregulation of HDAC6 expression level in human HL-60 cells at 0.5 to 2 uM by Western blotting analysis; format: functional, cell-based; details: dose 0.5-2 µM
[4] = test system: MDA-MB-231; assay: Downregulation of HDAC2 expression level in human MDA-MB-231 cells at 0.5 to 2 uM by Western blotting analysis; format: functional, cell-based; details: dose 0.5-2 µM
[5] = test system: HL-60; assay: Induction of apoptosis in human HL-60 cells at 0.5 to 2 uM incubated for 48 hrs by propidium iodide staining based flow cytometry analysis; format: functional, cell-based; details: dose 0.5-2 µM
[6] = test system: HL-60; assay: Induction of autophagy in human HL-60 cells assessed as upregulation of LC3-II expression level at 0.5 to 2 uM by Western blotting assay; format: functional, cell-based; details: dose 0.5-2 µM
[7] = test system: MDA-MB-231; assay: Induction of apoptosis in human MDA-MB-231 cells assessed as cell death at sub-G1 phase at 0.5 to 1 uM incubated for 48 hrs; format: functional, cell-based; details: dose 0.5-1 µM
[8] = test system: HL-60; assay: Antitumor activity against human HL-60 cells xenografted in ip dosed BALB/c nude mouse model assessed as reduction in tumor volume and measured twice a week for 22 days; format: functional, organism-based; details: dose 50-100 mg/kg, time 22.0 day
[9] = test system: Rattus norvegicus; assay: Anti-hyperuricemic activity against potassium oxonate-induced hyperuricemia Wistar rat model assessed as decrease in serum uric acid level at 10 mg/kg measured after 14 days; format: functional, organism-based; details: time 14.0 day
[10] = test system: Rattus norvegicus; assay: Anti-hyperuricemic activity against potassium oxonate-induced hyperuricemia Wistar rat model assessed as decrease in blood urea level at 2.5 mg/kg measured after 14 days; format: functional, organism-based; details: time 14.0 day
[11] = test system: Rattus norvegicus; assay: Anti-hyperuricemic activity against potassium oxonate-induced hyperuricemia Wistar rat model assessed as increase in hemoglobin levels at 5 mg/kg measured after 14 days; format: functional, organism-based; details: time 14.0 day
[12] = test system: Rattus norvegicus; assay: Anti-hyperuricemic activity against potassium oxonate-induced hyperuricemia Wistar rat model assessed as improvement in renal condition by measuring decrease in tubular cell necrosis at 10 mg/kg measured after 14 days by H and E staining based assay; format: functional, organism-based; details: time 14.0 day
[13] = test system: Rattus norvegicus; assay: Anti-hyperuricemic activity against potassium oxonate-induced hyperuricemia Wistar rat model assessed as increase in number of cuboidal cells at 10 mg/kg measured after 14 days by H and E staining based assay; format: functional, organism-based; details: time 14.0 day
[14] = test system: K562; assay: Cytotoxicity against human K562 cells incubated for 1 day by MTT assay; format: functional, cell-based; details: K562, 24 h
[15] = test system: MOLT-4; assay: Cytotoxicity against human MOLT-4 cells incubated for 1 day by MTT assay; format: functional, cell-based; details: MOLT-4, 24 h

**Q.** Which results are given for Cc1nc(-c2ccc(OCC(C)C)c(C#N)c2)sc1C(=O)NCCCCCCC(=O)NO?
**A.** Activity [1]: Active; Activity More Potent Than Saha; Activity [2]: Active; Activity More Potent Than Saha; Activity [3]: Active; Activity More Potent Than Saha; Activity [4]: Active; Activity [5]: Active; Activity Similar To Saha; Activity [6]: Active; Activity [7]: Active; Activity [8]: Dose-dependent-effect; Activity [9]: Active; Activity [10]: inactive; Activity [11]: Active; Activity [12]: Active; Activity [13]: Active; IC50 [14]: 1210 nM; IC50 [15]: 1190 nM
